A melting point compilation (Tetko et al.; mined from patent text by program, amines drawn as free bases though some values may be those of a salt)

| melting point | SMILES |
| --- | --- |
| 187 to 188 °C | Cc1nc(N2CCN(Cc3ccc(OC(F)(F)F)cc3)C2=O)sc1C(=O)Nc1ccccc1 |
| 41 to 42 °C | CCCS(=O)(=O)c1ncc(C(F)(F)F)cc1Cl |
| 148 to 149 °C | CCCCCCCCCCCCS(=O)(=O)Nc1cc(-c2cc3cc(F)c(F)cc3[nH]2)ccc1OC |
| 228 to 230 °C | O=C1Nc2ccc(Oc3ccccc3)cc2SC(c2ccc3c(c2)OCO3)C1O (stereo unspecified) |
| 269 °C | CCCCN1C(=O)CCC(C)(C)c2cc(C(=O)Nc3ccc(C(=O)O)cc3)ccc21 |
| 52.5 to 53.5 °C | CCCCCCCCCCCCCCC(=O)CCl |
| 199 to 201 °C | Cc1nnc2ccc(-c3ccc(C(F)(F)F)cc3)nn12 |
| 126 °C | CCC(=O)OCC(=O)C1(OC(=O)CC)CCC2C3CC(C)C4=CC(=O)C=CC4(C)C3C(O)CC21C (stereo unspecified) |
| 168 to 174 °C | CC(C)(C)OC(=O)N1CCn2c(Br)c(-c3cccc(F)c3)c(C(N)=O)c2C1 |
| 102 to 104 °C | Clc1nc2ccc(Br)cc2cc1Cc1ccccc1 |
| 129 to 133 °C | CCOCc1c(-c2ccccc2)oc2c(C(=O)NCCCN3CCN(c4ccccc4OC)CC3)cccc2c1=O |
| 176 to 177 °C | Nc1nc(-c2ccc(CCNC(=O)Cc3ccccc3)cc2)cs1 |
| 84 °C | CCCCCCCCCCC(O)COc1ccc(N2CCS(=O)(=O)CC2)cc1 (stereo unspecified) |
| 228 °C | O=C(O)/C=C/c1ccc(OCCN2CCOCC2)cc1 |
| 170 to 182 °C | COC(=O)C1CCC2C3CCC4CC(O)C(OC)CC4(C)C3C(=O)CC12C (stereo unspecified) |
| 148 to 156 °C | CCCS(=O)(=O)Oc1ccc(-c2nc3cc4c(cc3[nH]2)C(C)(C)CC(=O)N4)cc1 |
| 154 to 156 °C | NC(=S)CN1CCCC1=S |
| 95.3 to 111 °C | CC(C)(C)OC(=O)N(CCCc1ccc(Cl)cc1)C1CCCC1N (stereo unspecified) |
| 70 to 80 °C | CN1C(=O)CC[C@]2(C)c3ccc(-c4ccc([N+](=O)[O-])cn4)cc3CC[C@@H]12 |
| 183 to 185 °C | Cc1noc(-c2cc(-c3ccccc3)c(=O)n3c2-c2sccc2SCC3)n1 |
| > 300 °C | O=C(O)C1C=Nc2c(ccc3ncccc23)N1O (stereo unspecified) |
| 220 °C | CC(C)(C)S(=O)(=O)NC(=O)c1cccc([N+](=O)[O-])c1 |

| melting point | SMILES |
| --- | --- |
| 265 to 267 °C | COc1cc(F)ccc1-c1c(/C=C/C(=O)O)c2ccccc2c(=O)n1C(C)C |
| 152 to 155 °C | N#Cn1nc(-c2ccccc2)c(=O)cc1Br |
| 225 to 234 °C | COc1cccc2c1CC(C(=O)NCc1ccc(C(=O)O)cc1)N2S(=O)(=O)c1ccc(-c2ccc(F)cc2Cl)cc1 (stereo unspecified) |
| 90.6 to 91.2 °C | O=C(O)c1ccc(OC(F)(F)F)cc1Cl |
| 146 to 149 °C | CN(C)c1ccc([N+](=O)[O-])cn1 |
| 249 to 250 °C | O=C1Nc2cccnc2C(=O)N2CCCC12 (stereo unspecified) |
| 161 to 163 °C | CCNCCNc1ccc(NCCN(CC)CC)c2c1C(=O)c1c(O)ccc(O)c1C2=O |
| 130 to 132 °C | CCCCCS(=O)(=O)NC(=O)OCc1ccc(OCCOC)cc1Oc1ncc(C(F)(F)F)cc1Cl |
| 153 to 157 °C | COc1ccccc1[N+]1([O-])CC[N+]([O-])(CCN(C(=O)C2CCCCC2)c2ccccc2[N+](=O)[O-])CC1 (stereo unspecified) |
| 145 °C | Clc1nc(Cl)nc(Nc2ccc(OCc3ccccc3)c(Cl)c2)n1 |
| 201 to 202 °C | CC(=O)Nc1c(C(=O)c2cc(Cl)ccn2)[nH]c2cc(Cl)ccc12 |
| 91 to 93 °C | COc1cc(N)c(Cl)cc1C(=O)NCC1CCN(CCCCCOc2cccc3ccccc23)CC1 |
| 95 to 98 °C | O=C(CS(=O)Cc1cccs1)C12CC3CC(CC(C3)C1)C2 (stereo unspecified) |
| 158 °C | CC1(C)CC(O)(C(F)(F)F)C(Nc2cccc3[nH]c(=O)ccc23)c2cc(O)c(Cl)cc21 (stereo unspecified) |
| 67 to 69 °C | CCCCCCCCCCCCCCCCCCSP(=S)(C1CCCCC1)C1CCCCC1 |
| 189 to 190 °C | Cc1noc(NC(=O)N2CCN(c3cc(-c4ccccc4F)ncn3)CC2)c1C |
| 134 to 135 °C | O=C1[C@H]2CCC[C@H]2N(C(=O)CCCCBr)c2ccccc2N1Cc1ccccc1 (relative stereo) |
| 234 to 236 °C | O=C(O)CCCCn1c(=O)c2cc(O)ccc2n(CCCCN2CCC(OC(c3ccccc3)c3ccccc3)CC2)c1=O |
| 188 to 190 °C | COc1ccc(N2CCN(c3c(C)c(C)c4c(c3C)C(N3CCCc5ccccc53)C(C)(C)O4)CC2)cc1 (stereo unspecified) |
| 152 to 154 °C | COC(=O)COc1cc2c(c(Cl)c1C)C(=O)C1(CCCC1)C2=O |
| 141 °C | C=C(Cc1ccccc1)C(=O)NN1CCSCC1 |
| 151 to 153 °C | CCCCC(=O)SCC(Cc1ccccc1)C(=O)Nc1cc(C)cc(C(=O)O)c1 (stereo unspecified) |

| melting point | SMILES |
| --- | --- |
| 185 to 189 °C | Nc1ncc(CCN2CCN(c3ccccc3)CC2)s1 |
| 159 to 162 °C | Cc1nc2c(N)nc3c(c2n1CCCCS(=O)(=O)c1ccc(F)cc1)CCCC3 |
| 137 to 142 °C | O=C(O)COc1cccc2c1CCC(COC(=O)N(c1ccccc1)c1ccccc1)C2 (stereo unspecified) |
| 34 to 35 °C | CC(C)CSc1ccnc(OS(C)(=O)=O)c1 |
| 78.5 to 79.5 °C | CC(C)N(C(=O)C(F)(F)F)C(C#N)c1ccc(Cl)cc1 (stereo unspecified) |
| 173 to 175 °C | COc1ccc(C(=O)N2c3ccccc3C(Nc3ccc(Br)cc3)CC2C)cc1OC (stereo unspecified) |
| 140 °C | CCCCc1ncc(CSC(CC(=O)O)C(=O)O)n1Cc1ccc(C(=O)O)cc1 (stereo unspecified) |
| 267 to 270 °C | COc1cc2sc(C(=O)O)cc2c(Cl)c1OC |
| 182 to 183 °C | CN(C)C1CC2=CNC=C3C=C(C(N)=O)OCC1=C32 (stereo unspecified) |
| 231 °C | CN(C)c1ncnc2c(NC3OC(CO)C(O)C3O)ncnc12 (stereo unspecified) |
| 124 to 126 °C | CC(Oc1cccc(Cl)c1)c1ccnc2ncnn12 (stereo unspecified) |
| 88 to 90 °C | Cc1oc(-c2ccco2)nc1CCOc1ccc(N)cn1 |
| 233 to 236 °C | Clc1ccc(Nc2nnc(NCc3ccncc3)c3ccccc23)cc1 |
| 155 °C | CC(=O)OC1CSC(Sc2ccc(C#N)cc2)C(OC(C)=O)C1OC(C)=O (stereo unspecified) |
| 193 to 195 °C | COc1ccc(C(=O)Nc2ccccc2)cc1NC(=S)Nc1ccc(S(N)(=O)=O)cc1 |
| 192 °C | Cc1ccc(CCO)c(NCc2ccc3nc(NCCCN4CCOCC4)n(Cc4ncccc4O)c3c2)c1 |
| 145 to 149 °C | CC(=O)Nc1nc(/C=C/C(=O)N2CCN(C(=O)c3cc(C(F)(F)F)cc(C(F)(F)F)c3)[C@H](Cc3ccc(C)c(C)c3)C2)cs1 |
| 156 to 158 °C | CCOC(=O)c1ncc2[nH]c3cccc(Oc4ccc(Cl)cn4)c3c2c1COC |
| 180 to 182 °C | CCCNC(=S)NC1=Nc2ccc(OC(F)(F)F)cc2SC1 |
| 110 to 113 °C | CCC(CO)(CO)Nc1ncc2cc(Oc3ccc(F)cc3F)ccc2n1 |
| 103 to 104 °C | COCC1CC(=O)c2nc(C)c(C)n2C1 (stereo unspecified) |
| 206 to 211 °C | CC(=O)Nc1ccc(CNc2n[nH]c(N=CN(C)C)c2C#N)cc1 |

| SMILES | melting point |
| --- | --- |
| CC(Cc1ccc(OCCCO)cc1)NCC(O)c1cccc(C(F)(F)F)c1 (stereo unspecified) | 97 to 103 °C |
| NC(=O)OCC(OC(N)=O)c1ccccc1Cl (stereo unspecified) | 167 to 169 °C |
| NCC(CC(=O)O)C1CCCC1 (stereo unspecified) | 178 to 180 °C |
| Brc1cncc(C2CCCCN2)c1 (stereo unspecified) | 97 to 97.5 °C |
| CCCN1CCC(=O)C(C(c2ccccc2)c2ccccc2)C1 (stereo unspecified) | 72 to 76 °C |
